{"source": "patent US20210109080A1", "about": "“Cell-Based Biosensor for Early Alzheimer's Disease Detection” (University of South Carolina, priority 2019, published 2021)", "test_system": "HBMVEC monolayers", "assay": "FITC-BSA transendothelial transfer / permeability coefficient (Pe) across HBMVEC monolayers", "format": "cell-based, human", "details": "3 μM MG-132 pre-treatment 30 min, then 5 μM MIX 24 h", "method": "HBMVEC monolayers were incubated alone (white circles), with 0.3-10 μM Aß aggregates (grey circles), or with TNF-α (positive control, black circles). (a) Following 24-h treatment, transfer of FITC-BSA from the apical to basolateral chamber was monitored via florescence. Error bars represent SEM, n=3. Increased permeability is evidenced by a faster transfer rate, or steeper slope. Following treatment with 5 μM Aß aggregates, the transfer rate is increased by approximately 10%. (b) TEER was monitored following addition of treatments (indicated by arrow). […] In the absence of Aß aggregates, TEER maintains a plateau, decreasing by less than 8% over 7 days.\nHBMVEC monolayers were incubated alone (CONT, white circles), with Aß monomer (MON, diamonds), with Aß aggregate mixture containing small aggregates (MIX, circles), or with Aß fibrils (FIB, triangles). (a) Using FITC-BSA transfer rates, Pe was determined after 24-h treatment with Aß concentrations of 5 μM (white bars) and 10 μM (black bars). […] (b) TEER was monitored following addition of treatments at a concentration of 5 μM (indicated by arrow).\nPe is determined from the transfer rate of FITC-BSA and reported relative to untreated monolayers. […]\n(a) Confluent HBMVEC monolayers were incubated for 30 min with 100 pM, 1 nM, 10 nM, or 1 μM isolated small soluble Aß aggregates (SOL) (RH=43-54 nm). […] Using FITC-BSA transfer rates, Pe was determined.", "note": "Where a SMILES comes first, the peptide text is derived from it. The star is where a group is joined. Cbz = O=C(OCc1ccccc1)*", "data": [{"smiles": "CC(C)C[C@@H](C=O)NC(=O)[C@H](CC(C)C)NC(=O)[C@H](CC(C)C)NC(=O)OCc1ccccc1", "note": "[MG-132] (Cbz-Leu-Leu-Leu-aldehyde)", "values": [{"measurement": "effect on Aß-induced increase in Pe", "value": "Abrogation of the Aß-induced increase in Pe"}]}]}
